Results from patent US8945540B2, “Compositions for enhancing the antibacterial activity of myeloperoxidase and methods of use thereof” (Exoxemis, Inc., priority 2008, dated 2015).
Where two headings read alike, the source gives them in different places.

How the values were obtained:
[1] = test system: Staphylococcus aureus; experiment: Control: microbicidal activity of the amino acid or analogue alone (no glucose, MPO, glucose oxidase) in the presence of blood; format: cell-based; conditions: for log reduction at 5000 µM: Staphylococcus aureus, 1 h, read-out: Log Reduction 60 min
Source text: As a control to determine the microbicidal activity of the amino acids alone, the foregoing procedure was followed without replication, except in the absence of glucose, MPO, and glucose oxidase.

[2] = test system: Staphylococcus aureus; experiment: Microbicidal activity of the myeloperoxidase system (p-MPO, glucose oxidase, glucose) with amino acids in the presence of blood, CFU plate counts; synergy determination from these CFU; format: cell-based; conditions: for Average Viability CFU/ml 60 min / Log 10 (CFU + 1) Survivors 60 min / Log Reduction 60 min: MPO 38 U/ml, GO 33.3 U/ml; for Average Viability CFU/ml 50 min / Log Reduction 50 min: MPO 4.7 U/ml, GO 4.2 U/ml
Procedure, shortened: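 Staphylococcus aureus grown 24 hours in TSB at 35° C was washed in saline and added at a final 2-3×10^7 CFU per mL. The bacteria were mixed in 1 mL reactions with porcine myeloperoxidase, glucose oxidase, amino acids, 150 mM sodium chloride and 3% venous whole blood. Adding glucose to 150 mM started killing. After catalase addition, survivors were counted by serial dilution plating on TSA at 37° C for 24 hours.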

[3] = amino acid alone 5 mM, MPO 0, GO 0, no glucose, blood, without replication
[4] = MPO 100 μg/mL, AA 20 mM, 30 min
[5] = MPO 100 μg/mL, AA 20 mM, 60 min
[6] = Table 2, amino acid 5 mM (none: 0 mM), blood
[7] = Table 10, single amino acid 2.5 mM, in the presence of blood, 50 min
[8] = Table 11, single amino acid 2.5 mM, in the presence of blood, 50 min
[9] = Table 13, single amino acid 2.5 mM, in the presence of blood, 50 min
[10] = Table 3, amino acid 5 mM (none: 0 mM), blood
[11] = Table 14, single amino acid 2.5 mM, in the presence of blood, 50 min
[12] = Table 19, amino acid 3.5 mM, 50 min
[13] = single amino acid 2.5 mM, blood
[14] = Table 7, amino acid analogue 5 mM, blood

SMILES	log reduction at 5000 µM [1, 3]	Average Viability CFU/ml 60 min [1, 3] [CFU/ml]	Log 10 (CFU + 1) Survivors ([2]; MPO 25 μg/mL, AA 5 mM, 30 min)	Log 10 (CFU + 1) Survivors ([2]; MPO 25 μg/mL, AA 5 mM, 60 min)	Log 10 (CFU + 1) Survivors ([2]; MPO 25 μg/mL, AA […], 30 min)	Log 10 (CFU + 1) Survivors ([2]; MPO 25 μg/mL, AA […], 60 min)	Log 10 (CFU + 1) Survivors ([2]; MPO 100 μg/mL, AA 5 mM, 30 min)	Log 10 (CFU + 1) Survivors ([2]; MPO 100 μg/mL, AA 5 mM, 60 min)	Log 10 (CFU + 1) Survivors [2, 4]	Log 10 (CFU + 1) Survivors [2, 5]	Average Viability CFU/ml 50 min [2, 7] [CFU/ml]	Log Reduction 50 min [2, 7]	Average Viability CFU/ml 50 min [2, 8] [CFU/ml]	Log Reduction 50 min [2, 8]	Average Viability CFU/ml 50 min [2, 9] [CFU/ml]	Log Reduction 50 min [2, 9]	log reduction at 5000 µM [1]	Average Viability CFU/ml 60 min [2, 10] [CFU/ml]	Log 10 (CFU + 1) Survivors 60 min [2, 10]	Log Reduction 60 min [2, 10]	other results
N[C@@H](Cc1c[nH]cn1)C(=O)O [L-Histidine]	0	22700000	7.3	7.3	7.3	7.3	6.8	4.7	7.3	7.3	7000000	0.5	7000000	0.6	4750000	0.7					Average Viability CFU/ml 60 min [2, 6]: 48000 CFU/ml; Log 10 (CFU + 1) Survivors 60 min [2, 6]: 4.7; Log Reduction 60 min [2, 6]: 2.7
O=C(O)[C@@H]1C[C@@H](O)CN1 [L-Hydroxyproline]		20400000	7.3	7.3	7.4	6.1	7.2	0.9	7.2	7.3	13100000	0.3			11450000	0.3	0	0	0.0	7.3	Average Viability CFU/ml 50 min [2, 11]: 11550000 CFU/ml; Log Reduction 50 min [2, 11]: 0.4
CC[C@H](C)[C@H](N)C(=O)O [L-Isoleucine]	0	20500000	0.0	0.0	2.1	0.0	0.0	0.0	0.0	0.0	159500	2.2	155500	2.2				0	0.0	7.3	Average Viability CFU/ml 50 min [2, 11]: 117000 CFU/ml; Log Reduction 50 min [2, 11]: 2.4; Average Viability CFU/ml 50 min [2, 12]: 129333 CFU/ml; Log Reduction 50 min [2, 12]: 2.3; Average Viability CFU/ml 50 min [2, 13]: 73000 CFU/ml; Log Reduction 50 min [2, 13]: 2.5
CC(C)C[C@H](N)C(=O)O [L-Leucine]	0.1	18700000	4.1	0.0	3.9	0.0	0.0	0.0	0.0	0.0	214500	2.1	200500	2.1				0	0.0	7.3	Average Viability CFU/ml 50 min [2, 12]: 204000 CFU/ml; Log Reduction 50 min [2, 12]: 2.1; Average Viability CFU/ml 50 min [2, 13]: 200500 CFU/ml; Log Reduction 50 min [2, 13]: 2.1
COC(=O)[C@@H](N)CCCCN.Cl.Cl [L-Lysine methyl ester dihydrochloride]																	0				Average Viability CFU/ml 60 min ([1]; amino acid analogue alone 5 mM, MPO 0, GO 0, no glucose, blood): 21500000 CFU/ml; Average Viability CFU/ml 60 min [2, 14]: 0 CFU/ml; Log Reduction 60 min [2, 14]: 7.4
